Publication PMC7862272, “Discovery of an ene-reductase for initiating flavone and flavonol catabolism in gut bacteria” (Nature Communications, 2021)
One block for each molecule: values may come before it.

Assays:
[1] = biological target: T1, FLR (flavone reductase) (Flavonifractor plautii, UniProt A0A096D7X8); test: X-ray crystal structure (Se-SAD); type: binding; conditions: co-purified FMN at dimer interface
T1 construct: gene HMPREF9460_03474; SeMet-labelled for crystals

[2] = biological target: T1, FLR (flavone reductase); test: X-ray crystal structure, soaked SeMet crystal; type: binding; conditions: FMN bound, dimer interface
[3] = biological target: T2, sgrIFR (Streptomyces griseus, UniProt B1W160); test: conversion by E. coli expressing the enzyme; type: cell-based; conditions: product dihydrodaidzein
T2 construct: gene SGR_2256; expressed in E. coli BL21 from pET28a, activity of the cell culture
T2 sequence (B1W160 1-332): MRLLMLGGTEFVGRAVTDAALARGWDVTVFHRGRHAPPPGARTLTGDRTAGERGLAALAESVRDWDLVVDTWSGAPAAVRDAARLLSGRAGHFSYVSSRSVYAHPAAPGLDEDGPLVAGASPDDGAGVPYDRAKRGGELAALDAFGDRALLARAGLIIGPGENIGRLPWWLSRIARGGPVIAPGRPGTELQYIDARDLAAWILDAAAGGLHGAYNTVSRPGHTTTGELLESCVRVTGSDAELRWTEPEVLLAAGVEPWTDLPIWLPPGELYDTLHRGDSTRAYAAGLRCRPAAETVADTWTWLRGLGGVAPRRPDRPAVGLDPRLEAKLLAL

[4] = biological target: flavone reductase (FLR) from Flavonifractor plautii ATCC 49531 (Flavonifractor plautii ATCC 49531); test: SEC-MALS; Superdex-200 10/300; 100 mM NaCl, 20 mM Tris-HCl pH 7.9, 3 mM FMN, 3 mM DTT; 100 uL of FLR at ~5 mg/mL injected; room temperature
[5] = substrate: O=C1C[C@@H](c2ccc(O)cc2)Oc2cc(O)cc(O)c21; test: HPLC, steady-state kinetics, reverse reaction; type: biochemical, Flavonifractor plautii; conditions: pH 7.0, 37 °C, 0.5 mM FMN, 5% DMSO, reverse reaction (dehydrogenation to apigenin)
From the text: HPLC, steady-state kinetics, reverse reaction on FLR (flavone reductase) | The determination of the Km and kcat values of FLR for naringenin

[6] = substrate: O=c1cc(-c2ccc(O)cc2)oc2cc(O)cc(O)c12; test: purified protein; conditions: pH 7.0, 37 °C, 5 mM NADH, 0.5 mM FMN, 5 μM Fre, 5% DMSO, anaerobic

Molecule: Cc1cc2nc3c(=O)[nH]c(=O)nc-3n(C[C@H](O)[C@H](O)[C@H](O)COP(=O)(O)O)c2cc1C [FMN]
- X-ray crystal structure (Se-SAD) [1]: The cofactor molecule FMN binds at the dimer interface

Molecule: O=c1cc(-c2ccc(O)cc2)oc2cc(O)cc(O)c12 [apigenin]
- X-ray crystal structure, soaked SeMet crystal ([2]; 2.55 Å): solved the complex structures of FLR with various substrates, including apigenin, chrysin, and luteolin

Molecule: O=c1cc(-c2ccccc2)oc2cc(O)cc(O)c12 [chrysin]
- X-ray crystal structure, soaked SeMet crystal ([2]; 2.65 Å): solved the complex structures of FLR with various substrates, including apigenin, chrysin, and luteolin

Molecule: O=c1c(-c2ccc(O)cc2)coc2cc(O)ccc12 [daidzein]
- conversion by E. coli expressing the enzyme [3]: they could convert daidzein (a main isoflavone) to dihydrodaidzein

Molecule: O=c1cc(-c2ccc(O)c(O)c2)oc2cc(O)cc(O)c12 [luteolin]
- X-ray crystal structure, soaked SeMet crystal ([2]; 2.25 Å): solved the complex structures of FLR with various substrates, including apigenin, chrysin, and luteolin

- stoichiometry N [4]: 2
Molecule: flavone reductase (FLR) from Flavonifractor plautii ATCC 49531 (enzyme)

B1: FLR (flavone reductase) (Flavonifractor plautii 1_3_50AFAA) (protein)
chain: MKILGISGGMRNGSNDGMCIEALMGAKEMGAEVEFIQLQNLHIEHCTGCTACVQSVLGGRGGKCVLKDDFDWLLDKMLDADGIVFSTPIFEKGATGLFHTITDRFGPRMDRGNNIIGTKIAEETGGTAPDPRILKDKVISFMSVGGSDWVTRTQCDAGMLALTPMWKVIDNEVFPWALSILVEDERVARAHQIGRNIAEAAKNIEHAQYQGDAGVCPHCHSRNFHLQDGKAICCLCGLEGEIHNESGKYSFTFPAEQLEHAHDTLSGKFIHGNDIKENTGKKIANMQTEKYKARQAAYRAFITATVPEKG
notes: SeMet-labelled for crystals
- Km [5]: 12.27 ± 1.46 µM
- kcat [5]: 0.0577 ± 0.0025 s⁻¹
- Km [6]: 8.36 ± 1.34 µM
- kcat [6]: 0.0165 ± 0.0009 s⁻¹
